Data set [1] has as its system Mus musculus. Put plainly: Time plasma concentration remained above 1 uM in Swiss outbred mouse plasma at 0.4 mg/kg, po. In kind it is ADME, organism-based. Further details: dose 0.4 mg/kg, route oral. The settings on record: in vivo.
Data set [2] is described as follows: Cmax in Swiss outbred mouse at 50 mg/kg, po. In kind it is ADME, organism-based. Further details: dose 50 mg/kg, route oral. The conditions noted are these: in vivo.
A short description of data set [3]: Volume of distribution in Sprague-Dawley rat at 1 mg/kg, iv. In kind it is ADME, organism-based. Details: dose 1 mg/kg, route intravenous. The settings on record: in vivo.
Data set [4] can be described thus: Oral bioavailability in Sprague-Dawley rat at 21.2 mg/kg. In kind it is ADME, organism-based. The settings on record: in vivo.
Data set [5] in a line: Cmax in human RBC engrafted NOD-SCID IL-2Rgamma-null mouse at 5.7 mg/kg, po. In kind it is ADME, organism-based. Further details: dose 5.7 mg/kg, route oral. The settings on record: in vivo.
The subject of the next data set is HepG2. The experiment in a line: Cytotoxicity against human HepG2 cells. The class given is cell-based.
A further data set in a line: in vivo. The settings on record: NOD-SCID IL-2Rgamma-null, mouse, po, 5.7 mg/kg.
Data set [6] is described as follows: AUC (0 to infinity) in Swiss outbred mouse plasma at 10 mg/kg, po. The class given is ADME, organism-based. Details: time infinity, dose 10 mg/kg, route oral.
Data set [7] in a line: Terminal elimination half life in Sprague-Dawley rat at 2 mg/kg, po. In kind it is ADME, organism-based. The conditions noted are these: in vivo, read-out: beta t1/2 (converted). Further details: dose 2 mg/kg, route oral.
Data set [8] has as its system Plasmodium falciparum. The experiment in a line: Antimalarial activity against Plasmodium falciparum 3D7 0087/N9 infected in human RBC engrafted NOD-SCID IL-2Rgamma-null mouse assessed as reduction in parasitemia administered orally 3 days post infection qd for 4 days measured 24 hrs after final dose by FACS analysis. The settings on record: 3D7 0087/N9, po. In kind it is functional.

Data set [9] in a line: Terminal elimination half life in Sprague-Dawley rat at 4.5 mg/kg, iv. The class given is ADME, organism-based. Further details: dose 4.5 mg/kg, route intravenous. The settings on record: in vivo, read-out: beta t1/2 (converted).
Data set [10] relates to Plasmodium falciparum. Put plainly: Antimalarial activity against chloroquine and pyrimethamine-resistant Plasmodium falciparum K1 by [3H]hypoxanthine incorporation assay in presence of human serum. In kind it is functional, organism-based.
The nature of data set [11]: Oral bioavailability in Sprague-Dawley rat at 2 mg/kg. In kind it is ADME, organism-based. The conditions noted are these: in vivo.
The subject of data set [12] is Mus musculus. The experiment in a line: Time plasma concentration remained above 1 uM in Swiss outbred mouse plasma at 50 mg/kg, po. In kind it is ADME, organism-based. Details: dose 50 mg/kg, route oral. The conditions noted are these: in vivo.
Data set [13] is described as follows: Terminal elimination half life in Sprague-Dawley rat at 21.2 mg/kg, po. Details: dose 21.2 mg/kg, route oral. The class given is ADME, organism-based. The settings on record: in vivo, read-out: beta t1/2 (converted).

Where only a bound is given, the exact number is not on record here.

Turning to `Cc1cc(Nc2ccc(C(F)(F)F)cc2)n2nc(C(C)(F)F)nc2n1`, the values for the Time in the data set on Mus musculus [1] and in the data set with Mus musculus [12] were 0 h and 14 h, respectively. For the same molecule, the Cmax (as a rule, the highest concentration seen after dosing) in data set [2] was 57 µM; in data set [5] it was 6.3 µM. In data set [3], the Vd (usually a proportionality between amount in the body and measured concentration, not a real space) worked out at 3.3 L/kg. The bioavailability – broadly, dose-corrected exposure relative to a reference, in per cent – was more than 100% in data set [4] and 97% in [11]. For the same molecule, the EC50 (usually the concentration that produces a half-maximal response) in the data set on HepG2 is more than 50000 nM; in the data set on Plasmodium falciparum [10] it was 16 nM. Besides, the Tmax (commonly the time at which the peak concentration occurs) in “in vivo” is 1.7 h. The AUC(0-inf) (usually the area under the concentration-time curve extrapolated to infinity) in [6] was 70.1 µM·h. Further, the half-life in data set [7] was 6 h; in data set [9], 3.8 h; in data set [13], 17 h. The ED50 (usually the dose at which the effect has come halfway, by size or by number of responders) with Plasmodium falciparum [8] turned out to be 9.6 mg/kg. For the same molecule, in the data set on Plasmodium falciparum [8], the ED90 amounted to 26 mg/kg.
